Results on 1 compound are retold here after US9684238B2, “Fluorene-type compound, photopolymerization initiator comprising said fluorene-type compound, and photosensitive composition containing said photopolymerization initiator” (TOKYO OHKA KOGYO CO., LTD., priority 2012, dated 2017).

Data set [1] in a line: Transparency: coloring of the photopolymerization initiator before and after exposure. The format is physicochemical. The following applies: 40 g/L in tetrahydrofuran; 365 nm UV, 850 to 2,550 mJ/cm^2; compared with compound C-1. The protocol:
An influence on the coloring of a photopolymerization initiator after its exposure was confirmed because the photopolymerization initiator was required to have transparency. Specifically, as described below, the degrees of coloring (color change) of the photopolymerization initiator itself before and after its exposure were evaluated by measuring its absorbance. A 40 g/L solution of the compound 4 of Synthesis Example 4 in tetrahydrofuran was prepared, and the solution was loaded into a lidded UV cell made of quartz (12.5×12.5×58 mm) having an optical path length of 1 cm. The absorption spectrum of the solution before its exposure was measured with a spectrophotometer (manufactured by Hitachi High-Technologies Corporation, trade name: “U-3900H”). After that, the quartz surface of the UV cell was vertically irradiated with 850 mJ/cm^2 of UV light having a wavelength of 365 nm by using an exposure apparatus (manufactured by Ushio Inc., trade name: “[…]” (ML-251A/B) and optical unit (PM25C-100)), and the absorption spectrum of the solution was measured again. The foregoing operations were repeatedly performed, and a change in absorbance of the solution by UV irradiation was measured. […]
The axis of abscissa of the graph of FIG. 1(A) indicates the measurement wavelength (nm) of an absorption spectrum and the axis of ordinate thereof indicates an absorbance (Abs.) at the wavelength. […]

Data set [2] can be described thus: Decomposition point by thermal analysis (TG-DTA). The format is physicochemical. As to conditions: 5.0 mg. As to the method: The compounds 1, 2, 4, 6, 8, 9, 11, 12, 13, 15, 16, D-1, D-3, D-4, D-7, D-8, D-9, D-12, D-14, D-15, D-20, C-1, and C-2 were each subjected to measurement with a thermal analysis apparatus (TG-DTA) (manufactured by Rigaku Corporation, trade name: “Thermo Plus EVO TG 8120”) by using 5.0 mg thereof.

The nature of data set [3]: Transmittance of transparent cured film. The format is physicochemical. In a few lines:
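Films cured at 80 mJ/cm^2 exposure, otherwise prepared as in the earlier film evaluation. Spectrophotometer read in quartz cell, 1 cm path, giving transmittance (%) at 400 nm and average transmittance (%) over 400–700 nm.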

The nature of data set [4]: Solubility in PGME, PGMEA and ethyl lactate. The format is physicochemical.
Data set [5] is described as follows: Average transmittance of composition. The format is physicochemical. As to conditions: photosensitive composition, quartz cell, optical path length 1 cm. The protocol: The average transmittance (%) of each of the photosensitive resin compositions obtained in Examples 1 to 9, Examples 2-1 to 2-10, and Comparative Examples 1 and 2 in the range of from 400 nm to 700 nm was measured with a spectrophotometer (manufactured by Hitachi High-Technologies Corporation, trade name: “U-3900H”, quartz cell, optical path length; 1 cm).

A short description of data set [6]: Evaluation 3: 20-μm pattern line width of black photosensitive composition. As to conditions: black composition (carbon black, cardo resin), initiator 0.4 mmol. The method, boiled down: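 Composition spin-coated on glass to 1.0 μm dry thickness, dried 90 °C for 10 min, exposed at 10–80 mJ/cm^2 via high-pressure mercury lamp through 20 μm negative mask, developed in 0.1 wt % TMAH, rinsed. Line width of remaining cured film measured; larger width means higher sensitivity.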

Where [7] appears, read: cured at exposure energy quantity 80 mJ/cm^2.
The mark [8] stands for this setting: photopolymerization initiator containing the compound.

For `CCCC1(CCC)c2cc(C(=O)c3ccccc3C)ccc2-c2ccc(/C(C)=N/OC(C)=O)cc21` [Compound 4], the “influence on the coloring by the exposure” value in data set [1] is given as “small”. The same compound returned a Decomposition point in data set [2] of 277.0 °C. In data set [3] (setting [7]), the “Average transmittance (700 nm to 400 nm) Transparent cured film” value is on record as 99.9%. Besides, the “Transmittance (400 nm) Transparent cured film” value in data set [3] (setting [7]) is reported as 99.4%. In data set [3] (setting [8]), the “transparency of photosensitive composition and formed product (in words)” value is listed as “additionally excellent transparency”. The “Solubility Ethyl lactate” value in data set [4] (in 100 parts by weight of ethyl lactate, room temperature) was “B (An amount in the range of from 5 parts by weight or more to less than 10 parts by weight of the photopolymerization initiator is dissolved.)”. Besides, the “Solubility PGMEA” value in data set [4] (in 100 parts by weight of propylene glycol monomethyl ether acetate, room temperature) is listed as “A (10 Parts by weight or more of the photopolymerization initiator is dissolved.)”. For the same compound, the “Solubility PGME” value in data set [4] (in 100 parts by weight of propylene glycol monomethyl ether, room temperature) is reported as “B (An amount in the range of from 5 parts by weight or more to less than 10 parts by weight of the photopolymerization initiator is dissolved.)”. Moreover, the “solubility (in words)” value in data set [4] (setting [8]) is recorded as “additionally excellent solubility”. For the same compound, the “Average transmittance (700 nm to 400 nm) Solution” value in data set [5] was 96.3%. The “20-μm pattern line width” value in data set [6] (10 mJ/cm^2) is listed as 19.4; in data set [6] (20 mJ/cm^2), 20.0; in data set [6] (40 mJ/cm^2), 21.3; in data set [6] (60 mJ/cm^2) it was 22.1; in data set [6] (80 mJ/cm^2), 22.4.
